{
  "source": "paper PMC9240639",
  "about": "“Williams-Beuren Syndrome Related Methyltransferase WBSCR27: From Structure to Possible Function” (Frontiers in Molecular Biosciences, 2022)",
  "target": "T1, WBSCR27 (Mus musculus, UniProt Q8BGM4)",
  "T1 construct": "gene Mettl27; recombinant in E. coli, Ni-NTA, His-tag cleaved; isotope-labelled for NMR",
  "T1 sequence (Q8BGM4 1-238)": "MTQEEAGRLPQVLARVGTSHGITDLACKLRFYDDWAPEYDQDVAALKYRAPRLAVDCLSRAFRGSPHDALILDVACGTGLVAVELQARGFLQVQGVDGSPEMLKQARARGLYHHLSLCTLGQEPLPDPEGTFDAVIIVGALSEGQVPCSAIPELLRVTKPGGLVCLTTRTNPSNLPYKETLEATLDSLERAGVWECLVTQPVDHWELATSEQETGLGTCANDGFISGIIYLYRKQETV",
  "assay": "[…],1H HSQC NMR of epimer mixture with protein",
  "format": "binding",
  "conditions": "308 K, labelled compound (methyl 13C), 0.05 mM each",
  "data": [
    {"smiles": "C[S+](CC[C@H](N)C(=O)O)C[C@H]1O[C@@H](n2cnc3c(N)ncnc32)[C@H](O)[C@@H]1O", "note": "(mixture of isomers) [(R,S)-SAM]", "values": [
      {"measurement": "13C,1H HSQC NMR of epimer mixture with protein", "setting": "equimolar mixture with (S,S)-SAM, seen bound only at the higher protein ratio", "value": "This indicates a significantly lower affinity of the (R,S)-epimer compared with the (S,S)-epimer"}
    ]},
    {"smiles": "C[S+](CC[C@H](N)C(=O)O)C[C@H]1O[C@@H](n2cnc3c(N)ncnc32)[C@H](O)[C@@H]1O", "note": "(stereo partly drawn) [(S,S)-SAM]", "values": [
      {"measurement": "13C,1H HSQC NMR of epimer mixture with protein", "setting": "equimolar mixture with (R,S)-SAM", "value": "WBSCR27 preferably binds the (S,S) stereoisomer"}
    ]}
  ]
}
